# Reference: patent US8044079B2, “Substituted oxindole derivatives, medicaments containing said derivatives and use thereof” (Abbott GmbH & Co. KG, priority 2005, dated 2011)
# Molecular target: T1, human vasopressin V1b receptor (Homo sapiens, UniProt P47901)
# T1 construct: expressed in transfected cells; host or cells: CHO-K1 (cell line hV1b_3H2_CHO), membrane preparation
# T1 sequence (P47901 1-424): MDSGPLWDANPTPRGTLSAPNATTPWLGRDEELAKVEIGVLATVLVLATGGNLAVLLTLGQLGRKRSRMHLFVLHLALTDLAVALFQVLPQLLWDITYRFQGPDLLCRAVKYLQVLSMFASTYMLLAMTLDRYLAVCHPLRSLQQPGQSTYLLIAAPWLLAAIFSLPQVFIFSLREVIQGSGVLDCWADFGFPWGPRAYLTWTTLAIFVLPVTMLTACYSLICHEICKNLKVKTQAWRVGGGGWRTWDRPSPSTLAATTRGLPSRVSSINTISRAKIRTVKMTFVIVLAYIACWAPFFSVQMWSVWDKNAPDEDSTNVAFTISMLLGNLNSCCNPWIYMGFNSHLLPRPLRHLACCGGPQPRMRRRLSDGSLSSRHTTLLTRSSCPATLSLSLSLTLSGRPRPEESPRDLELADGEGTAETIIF
# Experiment: Vasopressin V1b receptor binding test
# Conditions: membranes of CHO-K1 cells with human V1b receptor, displacement of 1.5 nM 3H-AVP; for compounds with more than one stereogenic center the diastereomer with greater affinity
# Experimental: Vasopressin V1b Receptor Binding Test:
# The test substances were dissolved at a concentration of 10^−2 M in DMSO, and were further diluted to 5×10^−4 M to 5×10^−9 M in DMSO. This DMSO predilution series was diluted 1:10 with test buffer. In the test assay the substance concentration was further diluted to 1:5 (2% DMSO in the assay).
# The membrane pellet was homogenized again as described and centrifuged, and was then taken up in 50 mM tris-HCl at pH 7.4, homogenized, and frozen in aliquots at −190° C. and stored in liquid nitrogen.
# The incubation buffer was 50 mM tris, 10 mM MgCl2, and 0.1% BSA at pH 7.4. […] The nonspecific binding was determined using 1 μM AVP (Bachem #H1780). All determinations were performed in triplicate. After incubation (60 minutes at room temperature), the free radioligand was filtered off by vacuum filtration (Skatron 7000 cell harvester) through Wathman GF/B fiberglass filter mats, and the filters were transferred to scintillation vessels. The liquid scintillation measurement was conducted in a Model 2000 or 2200CA TriCarb unit (Packard). The measured cpm was converted to dpm using a standard quench series.
# The binding parameters were calculated by nonlinear regression in SAS.
# The affinities of the compounds according to the invention for human vasopressin receptor V1b were measured according to the above test, and the affinity constants (Ki) were determined.
row,Compound,Ki [nM]
1,"5-Chloro-1-(4-cyanobenzenesulfonyl)-3-{4-[(2-hydroxyethylamino)methyl]-2-methoxyphenyl}-3-((2S,4R)-4-hydroxy-2-oxazol-2-yl-pyrrolidin-1-yl)-2,3-dihydroindol-2-one [Example 196]",10 to 100
2,"COc1ccc(S(=O)(=O)N2C(=O)C(c3cc(CN4CCN(C)CC4)ccc3OC)(N3CCC[C@H]3c3ncco3)c3cc(Cl)ccc32)cc1 (single isomer, unassigned) [Example 1]",< 10
3,"COc1ccc(S(=O)(=O)N2C(=O)C(c3cc(CO)ccc3OC)(N3CCC[C@H]3c3ncco3)c3cc(Cl)ccc32)cc1 (stereo partly drawn) [Example 2, 5-Chloro-3-(5-hydroxymethyl-2-methoxyphenyl)-1-(4-methoxybenzenesulfonyl)-3-((S)-2-oxazol-2-yl-pyrrolidin-1-yl)-1,3-dihydroindol-2-one]",10 to 100
4,"CCNCc1ccc(OC)c(C2(N3CCC[C@H]3c3ncco3)C(=O)N(S(=O)(=O)c3ccc(OC)cc3)c3ccc(Cl)cc32)c1 (stereo partly drawn) [Example 5, 5-Chloro-3-(5-ethylaminomethyl-2-methoxyphenyl)-1-(4-methoxybenzenesulfonyl)-3-((S)-2-oxazol-2-yl-pyrrolidin-1-yl)-1,3-dihydroindol-2-one]",< 10
5,"CCN(C)Cc1ccc(OC)c(C2(N3CCC[C@H]3c3ncco3)C(=O)N(S(=O)(=O)c3ccc(OC)cc3)c3ccc(Cl)cc32)c1 (stereo partly drawn) [Example 6, 5-Chloro-3-{5-[(ethylmethylamino)methyl]-2-methoxyphenyl}-1-(4-methoxybenzenesulfonyl)-3-((S)-2-oxazol-2-yl-pyrrolidin-1-yl)-1,3-dihydroindol-2-one]",< 10
6,"CCN(CC)Cc1ccc(OC)c(C2(N3CCC[C@H]3c3ncco3)C(=O)N(S(=O)(=O)c3ccc(OC)cc3)c3ccc(Cl)cc32)c1 (stereo partly drawn) [Example 7, 5-Chloro-3-(5-diethylaminomethyl-2-methoxyphenyl)-1-(4-methoxybenzenesulfonyl)-3-((S)-2-oxazol-2-yl-pyrrolidin-1-yl)-1,3-dihydroindol-2-one]",< 10
7,"COc1ccc(S(=O)(=O)N2C(=O)C(c3cc(CNCCO)ccc3OC)(N3CCC[C@H]3c3ncco3)c3cc(Cl)ccc32)cc1 (stereo partly drawn) [Example 10, 5-Chloro-3-{5-[(2-hydroxyethylamino)methyl]-2-methoxyphenyl}-1-(4-methoxybenzenesulfonyl)-3-((S)-2-oxazol-2-yl-pyrrolidin-1-yl)-1,3-dihydroindol-2-one]",< 10
8,"COc1ccc(S(=O)(=O)N2C(=O)C(c3ccc(CO)cc3OC)(N3CCC[C@H]3c3ncco3)c3cc(Cl)ccc32)cc1 (stereo partly drawn) [Example 15, 5-Chloro-3-(4-hydroxymethyl-2-methoxyphenyl)-1-(4-methoxybenzenesulfonyl)-3-((S)-2-oxazol-2-yl-pyrrolidin-1-yl)-1,3-dihydroindol-2-one]",10 to 100
9,"COc1ccc(S(=O)(=O)N2C(=O)C(c3ccc(CN(C)C)cc3OC)(N3CCC[C@H]3c3ncco3)c3cc(Cl)ccc32)cc1 (stereo partly drawn) [Example 17, 5-Chloro-3-(4-dimethylaminomethyl-2-methoxyphenyl)-1-(4-methoxybenzenesulfonyl)-3-((S)-2-oxazol-2-yl-pyrrolidin-1-yl)-1,3-dihydroindol-2-one]",< 10

# Further lines, results first:
row,Ki [nM],Compound
1,< 10,"COc1ccc(S(=O)(=O)N2C(=O)C(c3cc(CN4CCC4)ccc3OC)(N3CCC[C@H]3c3ncco3)c3cc(Cl)ccc32)cc1 (single isomer, unassigned) [Example 12]"
2,< 10,"COc1ccc(S(=O)(=O)N2C(=O)C(c3cc(CN4CCN(C)CC4)ccc3OC)(N3C[C@H](O)C[C@H]3c3ncco3)c3cc(C#N)ccc32)cc1 (single isomer, unassigned) [Example 149]"
3,< 10,"CNCc1ccc(OC)c(C2(N3CCC[C@H]3c3ncco3)C(=O)N(S(=O)(=O)c3ccc(OC)cc3)c3ccc(Cl)cc32)c1 (stereo partly drawn) [Example 3, 5-Chloro-1-(4-methoxybenzenesulfonyl)-3-(2-methoxy-5-methylaminomethylphenyl)-3-((S)-2-oxazol-2-yl-pyrrolidin-1-yl)-1,3-dihydroindol-2-one]"
4,< 10,"COc1ccc(S(=O)(=O)N2C(=O)C(c3cc(CN(C)C)ccc3OC)(N3CCC[C@H]3c3ncco3)c3cc(Cl)ccc32)cc1 (stereo partly drawn) [Example 4, 5-Chloro-3-(5-dimethylaminomethyl-2-methoxyphenyl)-1-(4-methoxybenzenesulfonyl)-3-((S)-2-oxazol-2-yl-pyrrolidin-1-yl)-1,3-dihydroindol-2-one]"
5,< 10,"COc1ccc(S(=O)(=O)N2C(=O)C(c3cc(CNC(C)C)ccc3OC)(N3CCC[C@H]3c3ncco3)c3cc(Cl)ccc32)cc1 (stereo partly drawn) [Example 8, 5-Chloro-3-[5-(isopropylaminomethyl)-2-methoxyphenyl]-1-(4-methoxybenzenesulfonyl)-3-((S)-2-oxazol-2-yl-pyrrolidin-1-yl)-1,3-dihydroindol-2-one]"
6,< 10,"COc1ccc(S(=O)(=O)N2C(=O)C(c3cc(CN(C)C(C)C)ccc3OC)(N3CCC[C@H]3c3ncco3)c3cc(Cl)ccc32)cc1 (stereo partly drawn) [Example 9, 5-Chloro-3-{5-[(isopropylmethylamino)methyl]-2-methoxyphenyl}-1-(4-methoxybenzenesulfonyl)-3-((S)-2-oxazol-2-yl-pyrrolidin-1-yl)-1,3-dihydroindol-2-one]"
7,< 10,"COc1ccc(S(=O)(=O)N2C(=O)C(c3cc(CN4CCNCC4)ccc3OC)(N3CCC[C@H]3c3ncco3)c3cc(Cl)ccc32)cc1 (stereo partly drawn) [Example 11, 5-Chloro-1-(4-methoxybenzenesulfonyl)-3-(2-methoxy-5-piperazin-1-ylmethylphenyl)-3-((S)-2-oxazol-2-yl-pyrrolidin-1-yl)-1,3-dihydroindol-2-one]"
8,< 10,"COc1ccc(S(=O)(=O)N2C(=O)C(c3cc(CN4CCCC4)ccc3OC)(N3CCC[C@H]3c3ncco3)c3cc(Cl)ccc32)cc1 (stereo partly drawn) [Example 13, 5-Chloro-1-(4-methoxybenzenesulfonyl)-3-(2-methoxy-5-pyrrolidin-1-ylmethylphenyl)-3-((S)-2-oxazol-2-yl-pyrrolidin-1-yl)-1,3-dihydroindol-2-one]"
9,< 10,"COc1ccc(S(=O)(=O)N2C(=O)C(c3cc(CN4CCCCC4)ccc3OC)(N3CCC[C@H]3c3ncco3)c3cc(Cl)ccc32)cc1 (stereo partly drawn) [Example 14, 5-Chloro-1-(4-methoxybenzenesulfonyl)-3-(2-methoxy-5-piperidin-1-ylmethylphenyl)-3-((S)-2-oxazol-2-yl-pyrrolidin-1-yl)-1,3-dihydroindol-2-one]"
10,< 10,"CNCc1ccc(C2(N3CCC[C@H]3c3ncco3)C(=O)N(S(=O)(=O)c3ccc(OC)cc3)c3ccc(Cl)cc32)c(OC)c1 (stereo partly drawn) [Example 16, 5-Chloro-1-(4-methoxybenzenesulfonyl)-3-(2-methoxy-4-methylaminomethylphenyl)-3-((S)-2-oxazol-2-yl-pyrrolidin-1-yl)-1,3-dihydroindol-2-one]"
11,< 10,"CCN(C)Cc1ccc(C2(N3CCC[C@H]3c3ncco3)C(=O)N(S(=O)(=O)c3ccc(OC)cc3)c3ccc(Cl)cc32)c(OC)c1 (stereo partly drawn) [Example 18, 5-Chloro-3-{4-[(ethylmethylamino)methyl]-2-methoxyphenyl}-1-(4-methoxybenzenesulfonyl)-3-((S)-2-oxazol-2-yl-pyrrolidin-1-yl)-1,3-dihydroindol-2-one]"
